Assay results: US9523097B2, “Engineering rubber production in plants” (The United States of America, as represented by the …, priority 2013, dated 2016)
Like-named read-outs stand apart in the source and are kept apart here.

Columns and labels:
[1] = tested on: guayule explants; details: for Size of Callus with multi shoots: 5-point scale
Method: To evaluate the effect of calcium nitrate on guayule regeneration, guayule explants were cultured on MS basal medium with plant growth regulators (PGRs) (1.0 mg·L^−1 BA and 0.1 mg·L^−1 NAA) and calcium nitrate. […] calcium nitrate concentrations, 0, 100, 250, 500, 750, 1000 and 1500 mg·L^−1, were tested (Table 3). Calcium nitrate was added to the culture medium before adjusting the pH to 5.7, prior to autoclaving. DKW basal medium (0.75 mg·L^−1 BA and 0.25 mg·L^−1 NAA) was used as a control.

[2] = tested on: guayule leaf explants; experiment: Resistance of regenerated shoot on media with spectinomycin; format: cell-based, Parthenium argentatum
Method: To confirm whether the guayule explants were resistant to spectinomycin, leaf explants from control plants were cultured on regeneration DKW media that contained 0.75 mg·L^−1 BA and 0.125 mg·L^−1 NAA at various spectinomycin antibiotic levels. Several concentration of spectinomycin (0, 2, 4, 6, 8, 10, 12, 14, 16, 18 and 20 mg·L^−1) was added to the media to confirm the effects of antibiotic concentration on regeneration.

O.O.O.O.O=[N+]([O-])[O-].O=[N+]([O-])[O-].[Ca+2] [Calcium Nitrate, calcium nitrate tetrahydrate]
Size of Callus with multi shoots ([1]; 100 mg·L−1, DKW with 0.75 mg·L−1 BA and 0.25 mg·L−1 NAA): 3.0b | Number of elongated shoots ([1]; 100 mg·L−1, DKW with 0.75 mg·L−1 BA and 0.25 mg·L−1 NAA, per total explants): 6/30 | Size of Callus with multi shoots ([1]; 100 mg·L−1, MS with 1.0 mg·L−1 BA and 0.1 mg·L−1 NAA): 4.5a | Number of elongated shoots ([1]; 100 mg·L−1, MS with 1.0 mg·L−1 BA and 0.1 mg·L−1 NAA, per total explants): 3/30 | Size of Callus with multi shoots ([1]; 250 mg·L−1, DKW with BA/NAA): 2.9b | Number of elongated shoots ([1]; 250 mg·L−1, DKW with BA/NAA, per total explants): 3/30 | Size of Callus with multi shoots ([1]; 250 mg·L−1, MS with BA/NAA): 4.4a | Number of elongated shoots ([1]; 250 mg·L−1, MS with BA/NAA, per total explants): 13/30 | Size of Callus with multi shoots ([1]; 500 mg·L−1, DKW with BA/NAA): 2.2bc | Number of elongated shoots ([1]; 500 mg·L−1, DKW with BA/NAA, per total explants): 0/30 | Size of Callus with multi shoots ([1]; 500 mg·L−1, MS with BA/NAA): 4.1ab | Number of elongated shoots ([1]; 500 mg·L−1, MS with BA/NAA, per total explants): 6/30 | Size of Callus with multi shoots ([1]; 1000 mg·L−1, DKW with BA/NAA): 2.0c | Number of elongated shoots ([1]; 1000 mg·L−1, DKW with BA/NAA, per total explants): 0/30 | Size of Callus with multi shoots ([1]; 1000 mg·L−1, MS with BA/NAA): 3.6c | Number of elongated shoots ([1]; 1000 mg·L−1, MS with BA/NAA, per total explants): 0/30 | Size of Callus with multi shoots ([1]; 1500 mg·L−1, DKW with BA/NAA): 1.7 days | Number of elongated shoots ([1]; 1500 mg·L−1, DKW with BA/NAA, per total explants): 0/30 | Size of Callus with multi shoots ([1]; 1500 mg·L−1, MS with BA/NAA): 2.1 days | Number of elongated shoots ([1]; 1500 mg·L−1, MS with BA/NAA, per total explants): 0/30 | effect on elongated shoots ([1]; higher concentrations): negative effect | Number of elongated shoots ([1]; moderate concentrations (0, 100, 250, 500 and 1000 mg·L−1), MS and DKW medium): significantly improved

CN[C@@H]1[C@H](O)[C@H](NC)[C@H]2O[C@@]3(O)C(=O)C[C@@H](C)O[C@H]3O[C@@H]2[C@H]1O [spectinomycin]
concentration fatal to guayule plants [2]: about 12 mg/L | Callus formation and shoot emergence ([2]; 8 mg·L−1, DKW regeneration medium): not affected | Callus formation and shoot emergence ([2]; 10 mg·L−1, DKW regeneration medium): significantly reduced | Callus formation and shoot emergence ([2]; 12 mg·L−1 or higher, DKW regeneration medium): completely inhibited
